Data published in paper PMC9073274, “The toxic effects of alizarin red S on catalase at the molecular level” (RSC Advances, 2019).

Tests used:
[1] = target: T1, CAT (catalase from bovine liver) (Bos taurus, UniProt P00432); test: H2O2 decomposition, absorbance at […] nm; format: biochemical
T1 construct: native commercial enzyme from bovine liver (Beijing Solarbio); heme homotetramer, 506 residues per subunit
T1 sequence (P00432 2-527): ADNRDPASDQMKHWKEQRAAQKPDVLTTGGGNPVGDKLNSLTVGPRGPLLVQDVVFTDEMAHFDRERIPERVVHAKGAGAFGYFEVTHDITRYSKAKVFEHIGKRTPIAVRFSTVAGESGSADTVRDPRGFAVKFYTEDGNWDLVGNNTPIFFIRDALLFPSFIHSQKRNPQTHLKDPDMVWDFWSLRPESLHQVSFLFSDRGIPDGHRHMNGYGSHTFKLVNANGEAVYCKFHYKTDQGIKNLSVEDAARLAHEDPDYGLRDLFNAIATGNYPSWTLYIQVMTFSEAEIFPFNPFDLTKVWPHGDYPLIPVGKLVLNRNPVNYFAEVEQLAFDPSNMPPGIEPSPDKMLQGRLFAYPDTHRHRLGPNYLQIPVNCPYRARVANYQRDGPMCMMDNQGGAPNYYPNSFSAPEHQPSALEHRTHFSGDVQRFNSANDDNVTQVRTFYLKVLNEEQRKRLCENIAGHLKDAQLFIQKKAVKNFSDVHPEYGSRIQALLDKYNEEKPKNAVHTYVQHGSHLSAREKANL

[2] = target: T1, CAT (catalase from bovine liver); test: isothermal titration calorimetry, one-site model; format: binding; conditions: read-out: K (M^-1)
Excerpt: isothermal titration calorimetry, one-site model on CAT (catalase from bovine liver)

inhibition at 5 µM [1]: 23.8%
Kd [2]: 39.2 µM
Structure (SMILES): O=C1c2ccccc2C(=O)c2c1cc(S(=O)(=O)O)c(O)c2O [Alizarin red S]
